Key:
SETVI [1] = test: Post-emergence herbicidal action against SETVI; format: in vivo, Setaria viridis
Method in brief: (§1)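 Spray, one-leaf stage: WP or EC compound in water, 600–800 l/ha, 0.2% wetting agent. Plants held about 3 weeks in the greenhouse, then visually rated in percent of kill compared with untreated controls.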

PHBPU [2] = test: Pre-emergence herbicidal action against PHBPU; format: in vivo, Pharbitis purpurea
Method in brief: (§2)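 Pre-emergence soil-surface spray of formulated compound (WP or EC; 600 to 800 l/ha; 0.2% wetting agent) over seeds sown in sandy loam. After 3 weeks under greenhouse conditions, damage is estimated visually in percent against untreated plants.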

AMARE [3] = test: Pre-emergence herbicidal action against AMARE; format: in vivo, Amaranthus retroflexus
Method in brief: as §2

ABUTH [4] = test: Pre-emergence herbicidal action against ABUTH; format: in vivo, Abutilon theophrasti; conditions: for Pre-emergence action against ABUTH (herbicidal activity): 80 g/ha, scored visually after 3 weeks vs untreated controls (100% = plants have died, 0% = like control plants); for Pre-emergence action against ABUTH (herbicidal activity in percent): dosage 20 g/ha, scored visually after 3 weeks vs untreated controls, 100% = plants have died, 0% = like control plants
Method in brief: as §2

ECHCG [5] = test: Pre-emergence herbicidal action against ECHCG; format: in vivo, Echinochloa crus-galli
Method in brief: as §2

PHBPU [6] = test: Post-emergence herbicidal action against PHBPU; format: in vivo, Pharbitis purpurea
Method in brief: as §1

ECHCG [7] = test: Post-emergence herbicidal action against ECHCG; format: in vivo, Echinochloa crus-galli
Method in brief: as §1

AMARE [8] = test: Post-emergence herbicidal action against AMARE; format: in vivo, Amaranthus retroflexus; conditions: 20 g/ha, visual assessment about 3 weeks after treatment, 100% = plants have died, 0% = like control plants
Method in brief: as §1

VIOTR [9] = test: Post-emergence herbicidal action against VIOTR; format: in vivo, Viola tricolor
Method in brief: as §1

ABUTH [10] = test: Post-emergence herbicidal action against ABUTH; format: in vivo, Abutilon theophrasti; conditions: visual assessment about 3 weeks after treatment vs untreated controls
Method in brief: as §1

VERPE [11] = test: Post-emergence herbicidal action against VERPE; format: in vivo, Veronica persica; conditions: 20 g/ha
Method in brief: as §1

ALOMY [12] = test: Post-emergence herbicidal action against ALOMY; format: in vivo, Alopecurus myosuroides; conditions: dosage 20 g/ha, visual assessment about 3 weeks after treatment vs untreated controls
Method in brief: as §1

SETVI [13] = test: Pre-emergence herbicidal action against SETVI; format: in vivo, Setaria viridis
Method in brief: as §2

VERPE [14] = test: Pre-emergence herbicidal action against VERPE; format: in vivo, Veronica persica
Method in brief: as §2

MATIN [15] = test: Post-emergence herbicidal action against MATIN; format: in vivo, Matricaria inodora
Method in brief: as §1

AVEFA [16] = test: Post-emergence herbicidal action against AVEFA; format: in vivo, Avena fatua; conditions: 20 g/ha, visual assessment about 3 weeks after treatment, 100% = plants have died, 0% = like control plants
Description: Seeds of monocotyledonous and dicotyledonous weed and crop plants are laid out in sandy loam soil in wood-fiber pots, covered with soil and cultivated in a greenhouse under good growth conditions. 2 to 3 weeks after sowing, the test plants are treated at the one-leaf stage. The compounds of the invention, formulated in the form of wettable powders (WP) or as emulsion concentrates (EC), are then sprayed onto the green parts of the plants in the form of an aqueous suspension or emulsion at a water application rate equivalent to 600 to 800 l/ha, with addition of 0.2% wetting agent. After the test plants have been left to stand in the greenhouse under optimal growth conditions for about 3 weeks, the action of the preparations is assessed visually in comparison to untreated controls (herbicidal action in percent (%): 100% activity=the plants have died, 0% activity=like control plants). […] The tables below illustrate, in an illustrative manner, the post-emergence herbicidal action of the compounds of the invention, the herbicidal activity being stated in percent.

MATIN [17] = test: Pre-emergence herbicidal action against MATIN; format: in vivo, Matricaria inodora
Method in brief: as §2

VIOTR [18] = test: Pre-emergence herbicidal action against VIOTR; format: in vivo, Viola tricolor
Method in brief: as §2

ALOMY [19] = test: Pre-emergence herbicidal action against ALOMY; format: in vivo, Alopecurus myosuroides; conditions: 80 g/ha, pre-emergence, scored visually after 3 weeks vs untreated controls (100% = plants have died, 0% = like control plants)
Method in brief: as §2

AVEFA [20] = test: Pre-emergence herbicidal action against AVEFA; format: in vivo, Avena fatua; conditions: for Pre-emergence action against AVEFA in %: 80 g/ha
Method in brief: as §2

DIGSA = test: Pre-emergence herbicidal action against DIGSA; format: in vivo, Digitaria sanguinalis
Method in brief: as §2

[21] = 20 g/ha, scored visually after 3 weeks vs untreated controls, 100% = plants have died, 0% = like control plants
[22] = 80 g/ha, scored visually after 3 weeks vs untreated controls (100% = plants have died, 0% = like control plants)

SMILES	Pre-emergence action against PHBPU in % (PHBPU [2]; dosage 80 g/ha)	Pre-emergence action against AMARE in % (AMARE [3]; [21])	Pre-emergence action against AMARE in % (AMARE [3]; [22])	Pre-emergence action against ABUTH (herbicidal activity) (ABUTH [4])	Pre-emergence action against ABUTH (herbicidal activity in percent) (ABUTH [4])	Pre-emergence action against ECHCG in % (ECHCG [5]; 80 g/ha)	Post-emergence action against PHBPU in % (PHBPU [6]; dosage 20 g/ha)	Post-emergence action against ECHCG in % (ECHCG [7]; dosage 5 g/ha)	Post-emergence action against ECHCG in % (ECHCG [7]; dosage 20 g/ha)	Post-emergence action at 20 g/ha against AMARE in % (AMARE [8])	Post-emergence action against VIOTR in % (VIOTR [9]; 5 g/ha)	Post-emergence action against ABUTH in % (ABUTH [10]; dosage 20 g/ha)	Pre-emergence action against SETVI in % (SETVI [13]; dosage 80 g/ha)	Pre-emergence action against VERPE in % (VERPE [14]; dosage 80 g/ha)	Post-emergence action at 20 g/ha against AVEFA in % (AVEFA [16])	Pre-emergence action against MATIN in % (MATIN [17]; dosage 20 g/ha)	Pre-emergence action against MATIN in % (MATIN [17]; dosage 80 g/ha)	Pre-emergence action against VIOTR in % (VIOTR [18]; dosage 80 g/ha)	Pre-emergence action against ALOMY (herbicidal activity) (ALOMY [19])	Pre-emergence action against AVEFA in % (AVEFA [20])	further results
CCn1nnnc1NC(=O)c1ccc(C(F)(F)F)c(C(=O)NCC2CC2)c1SC [Example 2-84]	90%	100%	100%	100%	100%	100%	80%	100%	100%	100%	100%	90%	100%	80%	100%	100%	100%	100%	90%	100%	Post-emergence action against SETVI in % (SETVI [1]; dosage 5 g/ha): 80%; Post-emergence action against SETVI in % (SETVI [1]; dosage 20 g/ha): 100%; Pre-emergence action against ECHCG in % (ECHCG [5]; 20 g/ha): 90%; Post-emergence action against VIOTR in % (VIOTR [9]; 20 g/ha): 100%; Post-emergence action against VERPE in % (VERPE [11]): 80%; Post-emergence action against ALOMY in % (ALOMY [12]): 90%; Pre-emergence action against VERPE in % (VERPE [14]; dosage 20 g/ha): 80%; Post-emergence action against MATIN in % (MATIN [15]; dosage 20 g/ha): 80%; Pre-emergence action against VIOTR in % (VIOTR [18]; dosage 20 g/ha): 80%
CCn1nnnc1NC(=O)c1ccc(C(F)F)c(C(=O)NCC(F)F)c1SC [Example 2-92]	90%	100%	100%	100%	100%	100%	90%	80%	100%	100%	100%	90%	100%	100%	80%	100%	100%	100%	90%	80%	Post-emergence action against SETVI in % (SETVI [1]; dosage 5 g/ha): 80%; Post-emergence action against SETVI in % (SETVI [1]; dosage 20 g/ha): 100%; Post-emergence action against VIOTR in % (VIOTR [9]; 20 g/ha): 100%; Post-emergence action against ABUTH in % (ABUTH [10]; dosage 5 g/ha): 80%; Post-emergence action against VERPE in % (VERPE [11]): 90%; Post-emergence action against ALOMY in % (ALOMY [12]): 80%; Pre-emergence action against SETVI in % (SETVI [13]; dosage 20 g/ha): 100%; Post-emergence action against MATIN in % (MATIN [15]; dosage 20 g/ha): 80%; Pre-emergence action against VIOTR in % (VIOTR [18]; dosage 20 g/ha): 90%; Pre-emergence action against AVEFA (AVEFA [20]; 20 g/ha, scored visually after 3 weeks, 100% = plants have died, 0% = like control plants): 80%
CCn1nnnc1NC(=O)c1ccc(C(F)(F)F)c(C(=O)NCC(F)F)c1SC [Example 2-86]	90%	100%	100%	100%	100%	100%	90%	100%	100%	100%	100%	100%	100%	90%	80%	100%	100%	100%	90%	90%	Post-emergence action against SETVI in % (SETVI [1]; dosage 5 g/ha): 100%; Post-emergence action against SETVI in % (SETVI [1]; dosage 20 g/ha): 100%; Pre-emergence action against PHBPU in % (PHBPU [2]; dosage 20 g/ha): 80%; Pre-emergence action against ECHCG in % (ECHCG [5]; 20 g/ha): 80%; Post-emergence action against PHBPU in % (PHBPU [6]; dosage 5 g/ha): 80%; Post-emergence action against VIOTR in % (VIOTR [9]; 20 g/ha): 100%; Post-emergence action against ABUTH in % (ABUTH [10]; dosage 5 g/ha): 80%; Post-emergence action against ALOMY in % (ALOMY [12]): 80%; Post-emergence action against MATIN in % (MATIN [15]; dosage 5 g/ha): 80%; Post-emergence action against MATIN in % (MATIN [15]; dosage 20 g/ha): 90%
Cc1c(C(=O)Nc2nnnn2C)ccc(C(F)(F)F)c1C(=O)NC(C)C1CC1 (stereo not drawn) [Example 1-31]	80%	100%	100%	100%	100%	100%	80%	80%	80%			80%	100%	100%	90%	100%	100%	100%	90%	90%	Pre-emergence action against ECHCG in % (ECHCG [5]; 20 g/ha): 90%; Post-emergence action against ABUTH in % (ABUTH [10]; dosage 5 g/ha): 80%; Post-emergence action against VERPE in % (VERPE [11]): 80%; Pre-emergence action against DIGSA in % (DIGSA; dosage 20 g/ha): 100%; Pre-emergence action against DIGSA in % (DIGSA; dosage 80 g/ha): 100%; Pre-emergence action against VIOTR in % (VIOTR [18]; dosage 20 g/ha): 100%
CCn1nnnc1NC(=O)c1ccc(C(F)F)c(C(=O)NC(C)C2CC2)c1SC (stereo not drawn) [Example 2-351]	80%	100%	100%	100%	80%	100%	90%	100%	100%	100%	100%	80%	100%	100%	80%	100%	100%	100%	80%	80%	Post-emergence action against VIOTR in % (VIOTR [9]; 20 g/ha): 100%; Post-emergence action against VERPE in % (VERPE [11]): 90%; Post-emergence action against ALOMY in % (ALOMY [12]): 80%; Post-emergence action against MATIN in % (MATIN [15]; dosage 20 g/ha): 80%; Pre-emergence action against VIOTR in % (VIOTR [18]; dosage 20 g/ha): 100%
